Assay results taken from US12156523B2 (priority 2017, dated 2024).

Test system: Pyricularia oryzae
Assay: whole plant or invertebrate
Type: in vivo
Conditions: soil, read-out: Control value (number of lesions at the second leaf)

Row | Compound | pest or weed control at 10 µg/mL
1 | CC(C)Oc1cccc(N(C)C(=O)c2cc(F)nc(F)c2F)c1 [Example 1-1] | ≥ 80%
2 | CN(C(=O)c1cc(F)nc(F)c1F)c1ccccc1 [Example 1-2] | ≥ 80%
3 | O=C(Nc1c(F)c(F)c(C(F)(F)F)c(F)c1F)c1cc(F)nc(F)c1F [Example 1-4] | ≥ 80%
4 | O=C(Nc1cccc(Cl)c1Cl)c1cc(F)nc(F)c1F [Example 1-5] | ≥ 80%
5 | Cc1cccc(C)c1NC(=O)c1cc(F)nc(F)c1F [Example 1-7] | ≥ 80%
6 | O=C(Nc1ccc2c(c1)OCCO2)c1cc(F)nc(F)c1F [Example 1-9] | ≥ 80%
7 | O=C(NC1=NCCS1)c1cc(F)nc(F)c1F [Example 1-12] | ≥ 80%
8 | Cc1ccccc1NC(=O)c1cc(F)nc(F)c1F [Example 1-14] | ≥ 80%
9 | O=C(Nc1cnccn1)c1cc(F)nc(F)c1F [Example 1-15] | ≥ 80%
10 | O=C(Nc1ccccn1)c1cc(F)nc(F)c1F [Example 1-16] | ≥ 80%
11 | O=C(Nc1ncccn1)c1cc(F)nc(F)c1F [Example 1-17] | ≥ 80%
12 | COc1cc(NC(=O)c2cc(F)nc(F)c2F)cc(OC)c1OC [Example 1-20] | ≥ 80%
13 | O=C(Nc1ccc(F)c(F)c1)c1cc(F)nc(F)c1F [Example 1-21] | ≥ 80%
14 | COc1ccc(NC(=O)c2cc(F)nc(F)c2F)cc1OC [Example 1-22] | ≥ 80%
15 | O=C(Nc1cc(Cl)cc(Cl)c1)c1cc(F)nc(F)c1F [Example 1-24] | ≥ 80%
16 | COc1cc(NC(=O)c2cc(F)nc(F)c2F)cc(OC)c1 [Example 1-25] | ≥ 80%
17 | Cc1cc(C)cc(NC(=O)c2cc(F)nc(F)c2F)c1 [Example 1-26] | ≥ 80%
18 | O=C(Nc1cccc(Cc2ccccc2)c1)c1cc(F)nc(F)c1F [Example 1-27] | ≥ 80%
19 | Cc1ccc(NC(=O)c2cc(F)nc(F)c2F)cc1Br [Example 1-28] | ≥ 80%
20 | O=C(Nc1ccc(F)c(Cl)c1)c1cc(F)nc(F)c1F [Example 1-29] | ≥ 80%
21 | N#Cc1ccccc1NC(=O)c1cc(F)nc(F)c1F [Example 1-35] | ≥ 80%
22 | CCOC(=O)c1cccc(NC(=O)c2cc(F)nc(F)c2F)c1 [Example 1-37] | ≥ 80%
23 | Cc1ccc(NC(=O)c2cc(F)nc(F)c2F)cc1F [Example 1-39] | ≥ 80%
24 | Cc1ccc(NC(=O)c2cc(F)nc(F)c2F)cc1I [Example 1-40] | ≥ 80%

Row | Compound | pest or weed control at 10 µg/mL
25 | Cc1cccc(NC(=O)c2cc(F)nc(F)c2F)c1 [Example 1-46] | ≥ 80%
26 | O=C(Nc1cccc(Oc2ccccc2)c1)c1cc(F)nc(F)c1F [Example 1-47] | ≥ 80%
27 | O=C(Nc1cccnn1)c1cc(F)nc(F)c1F [Example 1-48] | ≥ 80%
28 | CC(C)(C)Oc1cccc(NC(=O)c2cc(F)nc(F)c2F)c1 [Example 1-50] | ≥ 80%
29 | O=C(Nc1nc[nH]n1)c1cc(F)nc(F)c1F [Example 1-51] | ≥ 80%
30 | O=C(Nc1cccc(OC(F)(F)F)c1)c1cc(F)nc(F)c1F [Example 1-52] | ≥ 80%
31 | O=C(Nc1ccc(Cl)cc1)c1cc(F)nc(F)c1F [Example 1-54] | ≥ 80%
32 | N#Cc1ccc(NC(=O)c2cc(F)nc(F)c2F)cc1 [Example 1-55] | ≥ 80%
33 | CCOC(=O)c1ccc(NC(=O)c2cc(F)nc(F)c2F)cc1 [Example 1-56] | ≥ 80%
34 | CCOc1ccc(NC(=O)c2cc(F)nc(F)c2F)cc1 [Example 1-57] | ≥ 80%
35 | Cc1cc(NC(=O)c2cc(F)nc(F)c2F)ccc1F [Example 1-58] | ≥ 80%
36 | COc1ccc(NC(=O)c2cc(F)nc(F)c2F)cc1 [Example 1-61] | ≥ 80%
37 | COc1cc(NC(=O)c2cc(F)nc(F)c2F)ccc1C [Example 1-63] | ≥ 80%
38 | Cc1ccc(NC(=O)c2cc(F)nc(F)c2F)cc1[N+](=O)[O-] [Example 1-64] | ≥ 80%
39 | Cc1ccc(NC(=O)c2cc(F)nc(F)c2F)cc1C(F)(F)F [Example 1-65] | ≥ 80%
40 | Cc1ccc(NC(=O)c2cc(F)nc(F)c2F)cc1 [Example 1-66] | ≥ 80%
41 | O=C(Nc1ccc([N+](=O)[O-])cc1)c1cc(F)nc(F)c1F [Example 1-67] | ≥ 80%
42 | O=C(Nc1ccc(Oc2ccccc2)cc1)c1cc(F)nc(F)c1F [Example 1-68] | ≥ 80%
43 | CC(C)(C)Oc1ccc(NC(=O)c2cc(F)nc(F)c2F)cc1 [Example 1-70] | ≥ 80%
44 | CC(C)(C)c1ccc(NC(=O)c2cc(F)nc(F)c2F)cc1 [Example 1-71] | ≥ 80%
45 | Cc1cc(NC(=O)c2cc(F)nc(F)c2F)no1 [Example 1-73] | ≥ 80%
46 | Cc1cnc(NC(=O)c2cc(F)nc(F)c2F)s1 [Example 1-74] | ≥ 80%
47 | O=C(NCCO)c1cc(F)nc(F)c1F [Example 1-78] | ≥ 80%
48 | O=C(NCCS)c1cc(F)nc(F)c1F [Example 1-79] | ≥ 80%

Row | Compound | pest or weed control at 10 µg/mL
49 | O=C(NC(CO)c1ccccc1)c1cc(F)nc(F)c1F (stereo not shown) [Example 1-81] | ≥ 80%
50 | CC(NC(=O)c1cc(F)nc(F)c1F)c1ccc(Cl)cc1 (stereo not shown) [Example 1-84] | ≥ 80%
51 | CC(NC(=O)c1cc(F)nc(F)c1F)c1ccccc1 (stereo not shown) [Example 1-85] | ≥ 80%
52 | O=C(NCCBr)c1cc(F)nc(F)c1F [Example 1-87] | ≥ 80%
53 | CCCNC(=O)c1cc(F)nc(F)c1F [Example 1-88] | ≥ 80%
54 | N#CCNC(=O)c1cc(F)nc(F)c1F [Example 1-91] | ≥ 80%
55 | CNC(=O)c1cc(F)nc(F)c1F [Example 1-92] | ≥ 80%
56 | CCCCCCCCNC(=O)c1cc(F)nc(F)c1F [Example 1-96] | ≥ 80%
57 | O=C(NCc1ccccc1)c1cc(NC(=O)c2cc(F)nc(F)c2F)ccc1Cl [Example 1-99] | ≥ 80%
58 | O=C(OCc1ccccc1Cl)c1cc(F)nc(F)c1F [Example 1-100] | ≥ 80%
59 | O=C(OCc1snc(Cl)c1Cl)c1cc(F)nc(F)c1F [Example 1-104] | ≥ 80%
60 | O=C(Oc1ccc(Cl)cc1)c1cc(F)nc(F)c1F [Example 1-107] | ≥ 80%
61 | N#Cc1ccc(OC(=O)c2cc(F)nc(F)c2F)cc1 [Example 1-108] | ≥ 80%
62 | COc1ccc(COC(=O)c2cc(F)nc(F)c2F)cc1 [Example 1-109] | ≥ 80%
63 | Cc1ccc(COC(=O)c2cc(F)nc(F)c2F)cc1 [Example 1-110] | ≥ 80%
64 | Cc1ccc(OC(=O)c2cc(F)nc(F)c2F)cc1 [Example 1-111] | ≥ 80%
65 | O=C(Oc1ccc([N+](=O)[O-])cc1)c1cc(F)nc(F)c1F [Example 1-112] | ≥ 80%
66 | O=C(OCc1ccccc1)c1cc(F)nc(F)c1F [Example 1-114] | ≥ 80%
67 | CC(OC(=O)c1cc(F)nc(F)c1F)C(F)(F)F (stereo not shown) [Example 1-115] | ≥ 80%
68 | CCOC(=O)c1cc(F)nc(F)c1F [Example 1-117] | ≥ 80%
69 | CC(C)OC(=O)c1cc(F)nc(F)c1F [Example 1-118] | ≥ 80%
70 | C#CCOC(=O)c1cc(F)nc(F)c1F [Example 1-119] | ≥ 80%
71 | O=C(OCC(F)(F)F)c1cc(F)nc(F)c1F [Example 1-120] | ≥ 80%
72 | O=C(OCC=C(Cl)Cl)c1cc(F)nc(F)c1F [Example 1-122] | ≥ 80%

Row | Compound | pest or weed control at 10 µg/mL
73 | CCCOC(=O)c1cc(F)nc(F)c1F [Example 1-123] | ≥ 80%
74 | O=C(OC/C=C/c1ccccc1)c1cc(F)nc(F)c1F [Example 1-124] | ≥ 80%
75 | CCOC(=O)COC(=O)c1cc(F)nc(F)c1F [Example 1-125] | ≥ 80%
76 | CCCCCCCCOC(=O)c1cc(F)nc(F)c1F [Example 1-127] | ≥ 80%
77 | O=C(Sc1ccccc1)c1cc(F)nc(F)c1F [Example 1-130] | ≥ 80%
78 | O=C(NCc1ccccc1)c1cc(F)nc(F)c1 [Example 1-140] | ≥ 80%
79 | CC(NC(=O)c1cc(F)nc(F)c1)c1ccc(Cl)cc1 (stereo not shown) [Example 1-141] | ≥ 80%
80 | O=C(Nc1ccccc1)c1cc(F)nc(F)c1 [Example 1-143] | ≥ 80%
81 | CC(=O)Oc1ccccc1COC(=O)c1cc(F)nc(F)c1 [Example 1-145] | ≥ 80%
82 | O=C(Nc1ccccc1)c1ccnc(C(F)(F)F)c1 [Example 1-146] | ≥ 80%
83 | CCOC(=O)c1ccnc(C(F)(F)F)c1 [Example 1-147] | ≥ 80%
84 | O=C(OC/C=C\COC(=O)c1cc(F)nc(F)c1F)c1cc(F)nc(F)c1F [Example 1-151] | ≥ 80%
85 | O=C(OC/C=C/COC(=O)c1cc(F)nc(F)c1F)c1cc(F)nc(F)c1F [Example 1-152] | ≥ 80%
86 | O=C(Nc1ccc(Cl)cc1)c1cc(F)nc(F)c1 [Example 1-153] | ≥ 80%
87 | O=C(Nc1ccc(Cl)c(Cl)c1)c1cc(F)nc(F)c1 [Example 1-155] | ≥ 80%
88 | C=CCNC(=O)c1cc(F)nc(F)c1 [Example 1-159] | ≥ 80%
89 | CCCCCCc1ccc(NC(=O)c2cc(F)nc(F)c2)cc1 [Example 1-181] | ≥ 80%
90 | C#CCOC(=O)c1cc(F)nc(F)c1 [Example 1-182] | ≥ 80%
91 | CCCOC(=O)c1cc(F)nc(F)c1 [Example 1-184] | ≥ 80%
92 | CCOC(=O)c1cc(F)nc(F)c1 [Example 1-185] | ≥ 80%
93 | CCc1ccc(OC(=O)c2cc(F)nc(F)c2)cc1 [Example 1-186] | ≥ 80%
94 | C=CCOC(=O)c1cc(F)nc(F)c1 [Example 1-188] | ≥ 80%
